Patent EP4810492A1, “NMT INHIBITOR, PREPARATION METHOD THEREFOR, AND USE THEREOF” (Nanjing Synnocare Pharmaceutical Technology Co., Ltd., priority 2023, dated 2025)
Read-outs that look alike come from different tables or passages of the source.

Tests used:
NMT1 enzyme = target: T1, NMT1 enzyme (Homo sapiens, UniProt P30419); experiment: Inhibitory activity on NMT1 enzyme catalysis (fluorescence intensity assay); assay type: biochemical
T1 sequence (P30419 1-496): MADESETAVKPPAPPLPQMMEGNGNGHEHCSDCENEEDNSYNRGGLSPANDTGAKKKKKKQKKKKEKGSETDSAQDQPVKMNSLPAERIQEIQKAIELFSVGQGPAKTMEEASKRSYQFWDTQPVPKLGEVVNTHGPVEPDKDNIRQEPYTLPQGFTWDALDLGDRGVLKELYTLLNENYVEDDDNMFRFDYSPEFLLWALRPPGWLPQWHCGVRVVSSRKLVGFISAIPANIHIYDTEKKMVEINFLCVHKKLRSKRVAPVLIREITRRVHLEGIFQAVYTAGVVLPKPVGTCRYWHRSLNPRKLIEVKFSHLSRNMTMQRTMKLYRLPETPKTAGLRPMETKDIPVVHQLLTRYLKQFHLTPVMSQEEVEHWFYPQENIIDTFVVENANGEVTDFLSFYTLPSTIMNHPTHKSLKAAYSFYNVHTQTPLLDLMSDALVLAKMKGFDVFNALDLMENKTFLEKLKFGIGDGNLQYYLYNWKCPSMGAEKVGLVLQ
Experimental: This study evaluated the ability of the compounds of the invention to inhibit NMT1 catalytic activity in vitro. […] The final concentration of the NMT1 enzyme was 6 nM, the final concentration of CPM (Reactive thiol fluorescence probe, Invitrogen, D346) was 1 µM, the final concentration of HSPP60 SRC was 20 µM, and the final concentration of DMSO was 0.5%.
Compounds were dissolved in DMSO to obtain 10 mM stock solutions. Dose-response solutions were prepared with a top endpoint compound concentration of 3 mM, followed by three-fold serial dilutions in DMSO, totaling ten data points. […] Then, 2.5 µL of the NMT1 enzyme working solution was added to the 384-well assay plate, followed by incubation at 25 °C for 10 minutes. Subsequently, 5 µL of the CPM and myristoyl-CoA working solution was added, the plate was centrifuged at 1000 rpm for 1 minute, and then 2.5 µL of the HSPP60 SRC working solution was added to initiate the reaction. The reaction was incubated at 25 °C for 45 minutes.
The IC50 curve of the compounds was fitted using the software XLfit 5.5.0 according to the nonlinear regression equation.

MV-4-11 cells = experiment: Anti-proliferative activity against MV-4-11 cells (cell viability chemiluminescence); assay type: cell-based; conditions: MV-4-11 human monocytic leukemia cells, three days of exposure
Experimental: This study utilized a cell proliferation assay to analyze the cytotoxicity of MV-4-11 human monocytic leukemia cells after three days of exposure to NMT1 inhibitors. The MV-4-11 cell line was purchased from Nanjing Cobuilder Biotechnology Co., Ltd., and cultured in IMDM medium (Viva cell) in an incubator (Thermo) at 37 °C with 5% CO2. In this experiment, NMT1 inhibitors were dissolved in DMSO to obtain 600 µM stock solutions. Dose-response solutions were prepared with a top endpoint compound concentration of 3 µM, followed by three-fold serial dilutions in DMSO, totaling eight data points. The final concentration of DMSO was 0.5%.
MV-4-11 cells were seeded into a white 96-well plate, 80 µL of cell suspension per well, containing 6000 MV-4-11 cells. The cell plate was placed in the CO2 incubator for overnight culture. Then, 20 µL of NMT1 inhibitor solutions at different concentrations were added to the wells. The 96-well plate was placed back into the incubator for three days. Another cell plate was prepared, and the signal was read on the day of drug addition to serve as the maximum value (Max value in the equation below) for data analysis. To this cell plate, 25 µL of cell viability chemiluminescence detection reagent was added per well, followed by incubation at room temperature for 10 minutes to stabilize the luminescence signal. A multi-label analyzer was used for reading.
The raw data were converted into inhibition rates using the equation (Sample - Min) / (Max - Min) * 100%. The IC50 values were then determined by fitting a four-parameter curve (using the "log(inhibitor) vs. response - Variable slope" model in GraphPad Prism). Min: wells treated with 0.5% DMSO; Max: Day 0 wells. Table 1 provides the inhibitory activity of the compounds of the invention on MV-4-11 cell proliferation. Table 1: Compound Inhibitory Activity against NMT1 Enzyme (IC50) and Anti-proliferative Activity against MV-4-11 Cell line (IC50)

[1] = 6 nM NMT1 enzyme, 1.25 µM myristoyl-CoA, 20 µM HSPP60 SRC peptide, 45 minutes at 25 °C, read-out: NMT1 (IC50)

SMILES | IC50 (NMT1 enzyme; [1]) [nM] | IC50 (MV-4-11 cells; MV4-11, 72 h) [nM] | further results
Cc1c(NS(=O)(=O)c2c(Cl)cc(-c3ccc4sc5c(c4c3)CNCC5)cc2Cl)c(C2CC2)nn1C [Compound 4] | 3.64 | 25.8 | 
Cc1c(NS(=O)(=O)c2c(Cl)cc(-c3ccc4sc5c(c4c3)CNCC5)cc2Cl)c(CO)nn1C [Compound 14] | 7.89 | 145 | 
COCc1nn(C)c(C)c1NS(=O)(=O)c1c(Cl)cc(-c2ccc3sc4c(c3c2)CNCC4)cc1Cl [Compound 15] |  |  | IC50 (NMT1 enzyme): 4.73 nM; IC50 (MV-4-11 cells; Homo sapiens, MV4-11, 72 h): 78.6 nM
Cc1c(NS(=O)(=O)c2c(Cl)cc(-c3ccc4sc5c(c4c3)CNCC5)cc2Cl)c(CF)nn1C [Compound 16] | 4.67 | 58.5 | 
CCc1nn(C)c(C)c1NS(=O)(=O)c1c(Cl)cc(-c2ccc3oc4c(c3c2)CNCC4)cc1Cl [Compound 46] | 3.96 | 18.8 | 
Cc1nn(C)c(C)c1NS(=O)(=O)c1c(Cl)cc(-c2ccc3oc4c(c3c2)CNCC4)cc1Cl [Compound 47] | 4.17 | 23.1 | 
Cc1c(NS(=O)(=O)c2c(Cl)cc(-c3ccn4nc5c(c4c3)CNCC5)cc2Cl)c(CC(C)C)nn1C [Compound 48] | 4.2 | 36.7 | 
CCc1nn(C)c(C)c1NS(=O)(=O)c1c(Cl)cc(-c2ccn3nc4c(c3c2)CNCC4)cc1Cl [Compound 49] | 3.64 | 16.8 | 
Cc1nn(C)c(C)c1NS(=O)(=O)c1c(Cl)cc(-c2ccn3nc4c(c3c2)CNCC4)cc1Cl [Compound 50] | 3.79 | 21.9 | 
CCc1nn(C)c(C)c1NS(=O)(=O)c1c(Cl)cc(-c2ccc3sc4c(c3c2)CCNC4)cc1Cl [Compound 55] | 3.97 | 26.2 | 
Cc1nn(C)c(C)c1NS(=O)(=O)c1c(Cl)cc(-c2ccc3sc4c(c3c2)CCNC4)cc1Cl [Compound 56] | 4.21 | 29.7 | 
Cc1c(NS(=O)(=O)c2c(Cl)cc(-c3ccc4c(c3)N3CCNC[C@H]3CO4)cc2Cl)c(CC(C)C)nn1C [Compound 57] |  |  | IC50 (NMT1 enzyme): 8.76 nM; IC50 (MV-4-11 cells; Homo sapiens, MV4-11, 72 h): 144 nM
Cc1c(NS(=O)(=O)c2c(Cl)cc(-c3ccc4c(c3)N3CCNC[C@@H]3CO4)cc2Cl)c(CC(C)C)nn1C [Compound 60] |  |  | IC50 (NMT1 enzyme): 7.95 nM; IC50 (MV-4-11 cells; Homo sapiens, MV4-11, 72 h): 152 nM
Cc1c(NS(=O)(=O)c2c(Cl)cc(N3CCc4sc5c(c4C3)CNCC5)cc2Cl)c(CC(C)C)nn1C [Compound 63, 2,6-dichloro-4-(3,4,6,7,8,9-hexahydrothieno[3,2-c:4,5-c']dipyridine-2(1H)-yl)-N-(3-isobutyl-1,5-dimethyl-1H-pyrazol-4-yl)benzenesulfonamide] | 3.35 | 16.7 | 
CCc1nn(C)c(C)c1NS(=O)(=O)c1c(Cl)cc(N2CCc3sc4c(c3C2)CNCC4)cc1Cl [Compound 64] | 2.97 | 7.36 | 
Cc1nn(C)c(C)c1NS(=O)(=O)c1c(Cl)cc(N2CCc3sc4c(c3C2)CNCC4)cc1Cl [Compound 65] | 3.51 | 21.1 | 
Cc1c(NS(=O)(=O)c2c(Cl)cc(N3CCn4nc5c(c4C3)CNCC5)cc2Cl)c(CC(C)C)nn1C [Compound 69] | 3.75 | 21.9 | 
CCc1nn(C)c(C)c1NS(=O)(=O)c1c(Cl)cc(N2CCn3nc4c(c3C2)CNCC4)cc1Cl [Compound 70] | 3.46 | 15.2 | 

SMILES | IC50 (NMT1 enzyme; [1]) [nM] | IC50 (MV-4-11 cells; MV4-11, 72 h) [nM] | further results
Cc1nn(C)c(C)c1NS(=O)(=O)c1c(Cl)cc(N2CCn3nc4c(c3C2)CNCC4)cc1Cl [Compound 71] | 3.79 | 25.9 | 
Cc1nn(C)c(C)c1NS(=O)(=O)c1ccc(-c2ccc3sc4c(c3c2)CNCC4)cc1Cl [Compound B1] | 2.67 | 14.4 | 
Cc1nn(C)c(C)c1NS(=O)(=O)c1ccc(-c2ccc3oc4c(c3c2)CNCC4)cc1Cl [Compound B3] | 3.1 | 21.9 | 
Cc1nn(C)c(C)c1NS(=O)(=O)c1ccc(-c2ccc3sc4c(c3c2)CNCC4)cc1 [Compound B4] | 2.94 | 15.8 | 
Cc1nn(C)c(C)c1NS(=O)(=O)c1ccc(-c2ccc3oc4c(c3c2)CNCC4)cc1 [Compound B6] | 3.76 | 23.3 | 
CCc1nn(C)c(C)c1NS(=O)(=O)c1ccc(-c2ccc3sc4c(c3c2)CNCC4)cc1Cl [Compound B7] | 2.93 | 9.82 | 
CCc1nn(C)c(C)c1NS(=O)(=O)c1ccc(-c2ccc3oc4c(c3c2)CNCC4)cc1Cl [Compound B9] | 2.52 | 13.5 | 
CCc1nn(C)c(C)c1NS(=O)(=O)c1ccc(-c2ccc3sc4c(c3c2)CNCC4)cc1 [Compound B10] | 2.39 | 10.1 | 
CCc1nn(C)c(C)c1NS(=O)(=O)c1ccc(-c2ccc3oc4c(c3c2)CNCC4)cc1 [Compound B12] | 2.98 | 17.8 | 
Cc1c(NS(=O)(=O)c2ccc(-c3ccc4oc5c(c4c3)CNCC5)cc2Cl)c(CC(C)C)nn1C [Compound B14] | 3.06 | 25.9 | 
Cc1c(NS(=O)(=O)c2ccc(-c3ccc4oc5c(c4c3)CNCC5)cc2)c(CC(C)C)nn1C [Compound B16] | 3.84 | 32.4 | 
Cc1c(NS(=O)(=O)c2ccc(-c3ccc4sc5c(c4c3)CNCC5)cc2Cl)c(CC#N)nn1C [Compound B19] | 3.07 | 21.7 | 
Cc1c(NS(=O)(=O)c2ccc(-c3ccc4sc5c(c4c3)CCNC5)cc2Cl)c(CC#N)nn1C [Compound B20] | 3.56 | 34.9 | 
Cc1c(NS(=O)(=O)c2c(Cl)cc(-c3ccc4sc5c(c4c3)CCNC5)cc2Cl)c(CC2CC2)nn1C [Compound B25] |  |  | IC50 (NMT1 enzyme; read-out: NMT1 (IC50), 6 nM NMT1 enzyme, 1.25 µM myristoyl-CoA, 20 µM HSPP60 SRC peptide, 45 minutes at 25 °C): 2.62 nM; IC50 (MV-4-11 cells; Homo sapiens, MV4-11, 72 h): 10.4 nM
Cc1c(NS(=O)(=O)c2ccc(-c3ccc4sc5c(c4c3)CNCC5)cc2Cl)c(CC2CC2)nn1C [Compound B27] | 2.08 | 9.68 | 
Cc1c(NS(=O)(=O)c2ccc(-c3ccc4oc5c(c4c3)CNCC5)cc2Cl)c(CC2CC2)nn1C [Compound B29] | 3.6 | 17.4 | 
Cc1c(NS(=O)(=O)c2ccc(-c3ccc4sc5c(c4c3)CCNC5)cc2Cl)c(CC(F)F)nn1C [Compound B60] |  | 62.8 | 
Cc1c(NS(=O)(=O)c2c(Cl)cc(-c3ccnc(N4CCNCC4)c3)cc2Cl)c(CC(C)C)nn1C [PCLX-001, reference compound] |  |  | IC50 (MV-4-11 cells; Homo sapiens, MV4-11, 72 h): 75.3 nM; IC50 (MV-4-11 cells): 74.3 nM
